Type in all cases: cell-based
One test relates to P. gingivalis. As to the kind of experiment: MIC50 against bacteria. To be noted: unit assumed. The protocol: (§1) MIC50 values against a variety of bacteria are measured for the dipropyl and dibutyl derivatives and compared to those for triclosan.
A further test has as its system F. nucleatum. As to the kind of experiment: MIC50 against bacteria. To be noted: unit assumed. The method, then: as §1
The test system of another test is S. mutans. As to the kind of experiment: MIC50 against bacteria. To be noted: unit assumed. The method, then:
as §1

In another test the test system is A. actino. As to the kind of experiment: MIC50 against bacteria. To be noted: unit assumed. The method, then: as §1
Another test deals with P. intermedia. Nature of the test: MIC50 against bacteria. To be noted: unit assumed. The method, then: as §1
The test system of another test is M. catarrhalis. As to the kind of experiment: MIC50 against bacteria. To be noted: unit assumed. The method, then:
as §1

For a further test, the system named is B. subtilis. Nature of the test: MIC50 against bacteria. To be noted: unit assumed. The method, then:
as §1

Another test relates to S. aureus. Nature of the test: MIC50 against bacteria. To be noted: unit assumed. The method, then:
as §1

The test system of a further test is S. gordonii. As to the kind of experiment: MIC50 against bacteria. To be noted: unit assumed. The protocol:
as §1

In the next test the test system is P. nigresc. Nature of the test: MIC50 against bacteria. To be noted: unit assumed. The protocol:
as §1

The next test deals with E. corrodens. Nature of the test: MIC50 against bacteria. To be noted: unit assumed. The method, then: as §1
The next test concerns B. cereus. Nature of the test: MIC50 against bacteria. To be noted: unit assumed. The method, then:
as §1

The next test relates to certain oral bacteria. As to the kind of experiment: MIC50 against certain oral bacteria, comparison. The protocol: as §1
The subject of test [1] is staphylococcus, streptococcus, and bacillus bacteria. As to the kind of experiment: MIC50 against a variety of bacteria, comparison. To be noted: against a number of staphylococcus, streptococcus, and bacillus bacteria of Table I; comparable to triclosan. The method, then: as §1

Values after ≈ are worked out from the molar mass of the structure shown.

The MIC50 is the lowest concentration that inhibits either 50% of growth or 50% of the strains tested, depending on the study. A low value points to greater potency. With `Oc1cc(Cl)ccc1Oc1ccc(Cl)cc1Cl` [triclosan], the MIC50 in the test on P. gingivalis was 0.5 µg/mL (≈ 1.73 µM); against F. nucleatum it was 1 µg/mL (≈ 3.45 µM); in the test with S. mutans it was 7.8 µg/mL (≈ 26.9 µM); with A. actino. it was 0.125 µg/mL (≈ 0.432 µM); with P. intermedia, 1 µg/mL (≈ 3.45 µM); in the test on M. catarrhalis, under 0.001 µg/mL. Besides, the MIC50 with B. subtilis is 2 µg/mL (≈ 6.91 µM); in the test with S. aureus it was 2 µg/mL (≈ 6.91 µM); in the test with S. gordonii, 7.8 µg/mL (≈ 26.9 µM); against P. nigresc., 3.9 µg/mL (≈ 13.5 µM); against E. corrodens, under 0.001 µg/mL; against B. cereus, 15.6 µg/mL (≈ 53.9 µM).

With `CCCCc1ccc(O)c(-c2cc(CCCC)ccc2O)c1` [dibutyl derivative, 5,5′-dibutyl-2,2′-dihydroxy-1,1′-biphenyl], the “MIC50 relative to an analogous compound containing propyl groups” value against certain oral bacteria was “lower”. In addition, the MIC50 against P. gingivalis was 2 µg/mL (≈ 6.7 µM); in the test on F. nucleatum, over 500 µg/mL; in the test with S. mutans, 3.9 µg/mL (≈ 13.1 µM); against A. actino., over 500 µg/mL; in the test with P. intermedia it was 2 µg/mL (≈ 6.7 µM); against M. catarrhalis, 15.6 µg/mL (≈ 52.3 µM). For the same compound, the MIC50 against B. subtilis was 7.8 µg/mL (≈ 26.1 µM); against S. aureus it was 7.8 µg/mL (≈ 26.1 µM); with S. gordonii, 31.3 µg/mL (≈ 105 µM); in the test on P. nigresc. it was 3.9 µg/mL (≈ 13.1 µM); in the test on E. corrodens it was 0.5 µg/mL (≈ 1.68 µM); against B. cereus it was 31.3 µg/mL (≈ 105 µM). Moreover, the “MIC50 relative to the dipropyl derivative” value in test [1] is recorded as “over an order of magnitude less than that of the dipropyl derivative”.

Regarding `CCCc1ccc(O)c(-c2cc(CCC)ccc2O)c1` [dipropyl derivative, 5,5′-propyl-2,2′-dihydroxy-1,1′-biphenyl], the MIC50 against P. gingivalis was 3.9 µg/mL (≈ 14.4 µM); against F. nucleatum, over 500 µg/mL; against S. mutans it was over 500 µg/mL; in the test on A. actino., over 500 µg/mL; with P. intermedia it was 2 µg/mL (≈ 7.4 µM); in the test with M. catarrhalis, 7.8 µg/mL (≈ 28.8 µM). In addition, the MIC50 in the test with B. subtilis was over 500 µg/mL; in the test on S. aureus, over 500 µg/mL; with S. gordonii, over 500 µg/mL; against P. nigresc., 7.8 µg/mL (≈ 28.8 µM); against E. corrodens, 1 µg/mL (≈ 3.7 µM); in the test with B. cereus, over 500 µg/mL.

Source of the values: US8652444B2, “Oral compositions containing biphenol antibacterial compounds” (Colgate-Palmolive Company, priority 2004, dated 2014).
